According to patent US20040198841A1, “Use of thiol-based compositions in ameliorating mucosal injury” (Oregon Health & Science University, priority 2003, published 2004):

Legend:
[1] = tested on: Normal human gastric cells (NHGC); experiment: WST-1 colorometric assay, chemoprotection against BR96-dox toxicity (Example 4); format: cell-based; details: for chemoprotection against BR96-dox toxicity: first test: drug and chemoprotectant co-incubated for 2-3 days
Procedure: Normal human gastric cells (NHGC) express high levels of the LewisY antigen recognized by the BR96 monoclonal antibody. BR-96 and BR-96-Dox toxicity was examined in NHGC to determine if toxicity could be protected against with thiol chemoprotectants.
(§1) Cytotoxicity is determined as the proportion of live cells, in comparison to untreated controls, using the WST-1 colorometric assay available from Roche Diagnostics, Indianapolis, Ind.

[2] = Weight loss and diarrhea in Long Evans rats seven days after intra-arterial Cisplatin with or without i.v. NAC (Example 1); format: in vivo; details: Cisplatin 6 mg/kg intra-arterially
Procedure: The graph shown as FIG. 1 represents the weight loss in grams in Long Evans rats seven days after administration of Cisplatin and NAC. Six mg/kg of Cisplatin was given intra-arterially either with or without intravenous (i.v.) administration of NAC at a dosage of 400 mg/kg. The NAC was administered about 15 minutes prior to the Cisplatin administration. The group without NAC consisted of 11 members. The NAC-treated group consisted of 8 members.
In the method of Example 1 for Cisplatin, the Long Evans rats were weighed, induced with isoflurane inhalant (2%+1.5% O2), intubated, placed on a respirator, and prepped for surgery. Isoflurane was then replaced with propofol (800 ug/kg/min i.v.) and a 50% nitrous/50% oxygen mixture. A ventral midline incision was made from mandible to manubrium. The left carotid bifurcation was exposed and freed, and the left external carotid artery was cannulated. NAC was then given intravenously to the treated group and intravenous saline was given to the untreated group. After 15 minutes, the left internal carotid artery was clamped, and Cisplatin (6 mg/kg) was infused through the external carotid catheter. The cannula was removed, and the skin incisions were closed using 4-0 Vicryl in a simple continuous pattern.
Seven days after Cisplatin infusion, the rats were weighed. These body weights were compared to those taken before surgery. […] This is correlated with renal failure and/or mucositis in the untreated group.

LX-1 cells = experiment: Chemoprotection in LX-1 cells (Example 4); format: cell-based; details: low dosages, about 0.2 to about 0.5 mg/ml
Procedure: as §1
Low dosages, about 0.2 to about 0.5 mg/ml, of NAC were protective against alkylators in LX-1 cells. NAC was 10-90% chemoprotective of NHGC at high dosages, such as from about 1-5 mg/ml.

[3] = Weight loss in Long Evans rats 7 days after cisplatin to the aorta, 15 minutes after i.v. saline or NAC (Example 5); format: in vivo; details: cisplatin 6 mg/kg via right external carotid artery cannula; NAC 400 mg/kg i.v. 15 minutes before; n=8 per group
Procedure: Before the study began, the rats were weighed to establish a baseline. Long Evans rats were treated with cisplatin 6 mg/kg delivered to the aorta via a right external carotid artery cannula 15 minutes after intravenous infusion of saline (n=8) or NAC 400 mg/kg (n=8). This procedure was preformed by the rats being induced with isoflurane inhalant (2%+1.5% oxygen), intubated, placed on a respirator and prepped for surgery. Isoflurane was then replaced with propofol (800 μg/kg/min i.v.) and a 50% nitrous/50% oxygen mixture. A ventral midline incision was made from mandible to manubrium. The right carotid bifurcation was exposed and freed, and the right external carotid artery was cannulated. NAC (400 mg/kg) was then given to the treated group (n=8) and i.v. saline was given to the untreated group (n=8). After 15 minutes, the right internal carotid artery was clamped and cisplatin (6 mg/kg) was rapidly infused through the external carotid catheter. The cannula was removed and the skin incisions were closed using 4-0 Vicryl in a simple continuous pattern. Health and well being were monitored daily post-surgery. After seven days, the animals were weighed and this value compared to the baseline.

GM294 human fibroblasts = experiment: WST colorometric cytotoxicity assay, chemoprotection with or without BSO cytoenhancement (Example 3); format: cell-based; details: NAC 1000 μg/ml added immediately after melphalan, cisplatin, carboplatin or etoposide phosphate; with or without 100 μM BSO pretreatment
Procedure: Cytotoxicity was assessed in GM294 human fibroblasts, 1×10^4 cells per well in 96 well plates, using the WST colorometric assay. Cells were pretreated with or without BSO, 100 μM for 18 hours prior to addition of chemotherapeutics (melphalan=10 μg/ml, carboplatin=100 μg/ml, cisplatin=7.5 μg/ml, etoposide phosphate 100 μg/ml) either alone (open bar), or with NAC rescue, (1000 μg/ml N-acetylcysteine, striped bar), BSO cytoenhancement (black bar), or BSO cytoenhancement and NAC rescue (cross hatched bar). Data are expressed as the percentage of live cells compared to control samples (without chemotherapy) and each point represents the mean±s.d. of 4 wells. This was also repeated with normal human gastric cells (NHGC) and gastric epithelial cells.
The fibroblast cells were either preincubated or not preincubated with 100 μM BSO for about 18-24 hours prior to addition of chemotherapy, and rescue consisted of 1000-2000 μg/ml of a thiol anti-mucosal injury agent added immediately after chemotherapy. […] Protection of epithelia cells allows for the prevention and treatment of mucositis of these tissues.

[4] = Brizel DM, J Clin Oncol 2000; cited from earlier work
LX-1 SCLC = experiment: Weight loss and survival in nude rats 12 days after intracerebral inoculation with LX-1 SCLC cells, with or without oral TMZ (Example 2); format: in vivo
Procedure: TMZ was given at a dosage of 5 mg orally, once daily, on days 6-11. There were 10 members in the untreated group and seven members in the group treated with TMZ.
For the intracerebral inoculations, the nude rats were anesthetized with a mixture of intraperitoneal ketamine (60 mg/kg) and diazepam (7.5 mg/kg). The head was shaved and scrubbed with Betadine, a midline incision made, and a 2 mm burr hole using stereotaxic coordinates was made. A 27 g needle was used for inoculation with a 100 ul Hamilton syringe, placed […] ventral to the surface, deep in the right caudate putamen. Inoculants used were LX-1 SCLC. The needle was withdrawn and the incision closed with wound clips. One group of rats received no treatment, while the other group received oral 5 mg doses of TMZ, an alkylating agent, once daily on days 6-11 after inoculation, delivered through a feeding tube while under isoflurane anesthesia. On day 12, all rats were weighed, sacrificed, and the brains removed and fixed in formalin for subsequent tumor-volume analysis.
It is believed that TMZ effects the size of any lesions in the brain. The TMZ may decrease the size of any lesions in the brain; those animals experiencing more constant or improved appetite than animals with larger tumors which experienced appetite suppression.

[5] = NAC 400 mg/kg i.v. 15 minutes prior

In the case of CSCC[C@@H](N)C(=O)O [d-Methionine, D-methionine], the “chemoprotection against BR96-dox toxicity” value [1] is reported as “No chemoprotection”.

For CC(=O)N[C@@H](CS)C(=O)O [NAC, N-acetylcysteine], the “diarrhea, group without NAC compared to NAC treated group” value [2, 5] was “greater diarrhea than the NAC treated group”, the “subjective condition of untreated rats compared to NAC-treated group” value [2, 5] was “more depressed, cachexic, and dehydrated than the NAC-treated group” and the “loss of body weight after 7 days, group without NAC compared to NAC-treated group” value ([2]; NAC 400 mg/kg i.v. about 15 minutes prior, unpaired t-test p<0.0002) was “significantly larger loss of body weight”. For the same compound, the “protection against alkylators in LX-1 cells” value (LX-1 cells) was “protective”, the “chemoprotective of NHGC” value ([1]; first test: co-incubated for 2-3 days, high dosages, about 1-5 mg/ml) was 10-90% and the “chemoprotective, pulsed treatment” value ([1]; second test: 4 hour pulsed treatment with BR-96-dox and NAC) was 0-20%. For the same compound, the “weight loss after 7 days compared to control” value [3] was “less weight loss than the control” and the “chemoprotection of fibroblast cells (percentage of live cells)” value (GM294 human fibroblasts) was “protective effect”.

In the case of NCCCNCCSP(=O)(O)O [Amifostine, amifostine], the “effect on mucositis in patients undergoing radiation therapy” value [4] is given as “not to reduce mucositis”.

With O=S([O-])([O-])=S.[Na+].[Na+] [STS, sodium thiosulfate] the “chemoprotection against BR96-dox toxicity” value [1] was “No chemoprotection”.

In the case of CCOC(=O)CNC(=O)[C@H](CS)NC(=O)CC[C@H](N)C(=O)O [GSH ethyl ester, glutathione ethyl ester], the “chemoprotection against BR96-dox toxicity” value [1] is reported as “No chemoprotection”.

In the case of Cn1nnc2c(C(N)=O)ncn2c1=O [TMZ, Temazolamide], the “subjective activity at day 12 compared to untreated group” value (LX-1 SCLC; TMZ 5 mg orally once daily on days 6-11) is reported as “more active and responsive”, the “survival to day 12” value (LX-1 SCLC; TMZ 5 mg orally once daily on days 6-11, three rats without TMZ did not survive to day 12) is reported as “all of the TMZ rats survived to day 12” and the “loss of body weight at day 12, group without TMZ compared to group treated with TMZ” value (LX-1 SCLC; TMZ 5 mg orally once daily on days 6-11 after inoculation, unpaired t-test p<0.0041) is reported as “significantly higher loss of body weight”.
